# “Also recorded” adds a separate entry of the source. Where two headings read alike, the source gives them in different places.
# Key:
# [1] = molecular target: TbrAK (adenosine kinase of T. b. rhodesiense) (Trypanosoma brucei rhodesiense, UniProt Q584S0); experiment: TbrAK activity assay (HPLC, ADP/ATP ratio); format: biochemical; conditions: n.e. = no effect; for potency EC50 (TbrAK activation) / EC50: compound range 1–2000 µM, average of three experiments, neither activator nor inhibitor; for efficacy increase (TbrAK activation): efficacy of TbrAK in absence of compound taken as reference; for EC50: read-out: potency EC50 (TbrAK activation)
# Procedure: The activation potential of a series of compound 1 derivatives (compounds 2–7) was measured using a recently developed HPLC method. The resulting ADP/ATP ratios were calculated and used as a measure of activity. For comparative reasons the activity recorded in absence of compound was set to 100%. The mean of three independent measurements is reported.
# [2] = system: Trypanosoma brucei rhodesiense; design: method as in PMID 19707572, PMID 17949068; conditions: read-out: IC50 towards Trypanosoma brucei rhodesiense; cited from earlier work
# [3] = molecular target: T1, TbrAK (Trypanosoma brucei rhodesiense, UniProt Q584S0); conditions: ITC; cited from earlier work
# [4] = molecular target: T1, TbrAK; experiment: Thermal stability assay (thermal unfolding by CD spectroscopy); format: binding; conditions: for Tm ± SD: TbrAK 13 µM, apo TbrAK 43.1±0.4, average of three experiments; for increase of TbrAK melting point when compound 1 was added: 50 µM
# Procedure: Thermal unfolding of TbrAK was studied by CD spectroscopy as outlined elsewhere. […] TbrAK in a buffer containing 20 mM Hepes and 150 mM NaCl (pH 7.0) was kept constant at a final concentration of 0.5 mg/ml (13 µM). […] For evaluation of the CD spectra, the buffer spectrum was subtracted from the protein CD spectrum. All thermal unfolding curves were fitted to a two-state model that had been published recently. The mean of three independent experiments is reported.
# [5] = design: method as in PMID 19707572, PMID 17949068; conditions: cited from earlier work
# [6] = molecular target: T1, TbrAK; experiment: Isothermal titration calorimetry (ITC); format: binding
# Procedure: Binding affinity constants for adenosine and ATP were determined using isothermal titration calorimetry (ITC). To this end, TbrAK was dialyzed into a buffer consisting of 20 mM Tris, 150 mM NaCl, and 5% glycerol (pH 7.5) and used at concentrations around 90 µM. The ligands were dissolved directly into the dialysis buffer to give a final concentration of around 2 mM. All solutions were filtered and thoroughly degassed before use. A typical titration experiment consisted of a first control injection of 1 µl followed by 50 to 60 injections, each of 5 µl (20 s duration), using a 4 min interval. Raw data were collected, corrected for ligand heats of dilution, integrated and fitted to the appropriate binding model using the Microcal Origin software supplied with the instrument. The measurements were performed in duplicate.
# [7] = AP5A, adenosine, ATP at 500 µM, compound 1 at 50 µM
# T1 sequence (Q584S0 entry or part of it): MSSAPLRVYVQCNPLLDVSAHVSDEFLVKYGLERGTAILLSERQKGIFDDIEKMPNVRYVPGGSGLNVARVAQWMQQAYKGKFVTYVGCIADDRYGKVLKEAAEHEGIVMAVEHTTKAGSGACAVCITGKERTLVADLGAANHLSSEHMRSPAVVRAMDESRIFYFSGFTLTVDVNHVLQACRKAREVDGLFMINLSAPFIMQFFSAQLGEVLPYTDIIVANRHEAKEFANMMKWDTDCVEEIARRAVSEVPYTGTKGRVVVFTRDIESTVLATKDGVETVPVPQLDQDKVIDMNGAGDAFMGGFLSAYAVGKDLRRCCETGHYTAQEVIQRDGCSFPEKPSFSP
# Sequence of TbrAK (adenosine kinase of T. b. rhodesiense) (Q584S0 entry or part of it): as above
SMILES,efficacy increase (TbrAK activation) [1],"Tm ± SD [4, 7] [°C]",EC50 [1] [µM],further results
"O=[N+]([O-])c1ccc(Oc2ccc(-c3cc(N4CCOCC4)[nH]n3)cc2)cc1 [compound 7, 4-{5-[4-(4-nitrophenoxy)phenyl]-2H-pyrazol-3-yl}morpholine]",loses all activation capacity; also recorded: n.e. ^c,–,–,potency EC50 (TbrAK activation) [1]: n.e.
"c1ccc(Oc2ccc(-c3cc(N4CCOCC4)[nH]n3)cc2)cc1 [compound 1, 4-[5-(4-phenoxyphenyl)-2H-pyrazol-3-yl]morpholine]",3.5 fold,47.9±0.1,–,IC50 [2]: 1 µM; number of binding sites on TbrAK [3]: two binding sites; increase of TbrAK melting point when compound 1 was added ([4]; in presence of adenosine): 0.4 °C; increase of TbrAK melting point when compound 1 was added ([4]; in presence of both adenosine and ATP): 0.7 °C; cytotoxicity [5]: low cytotoxicity
"c1ccc(Oc2ccc(-c3cc(N4CCOCC4)on3)cc2)cc1 [compound 6, 4-[3-(4-phenoxyphenyl)isoxazol-5-yl]morpholine]",loses all activation capacity; also recorded: n.e. ^c,–,–,potency EC50 (TbrAK activation) [1]: n.e. ^c
"Nc1ncnc2c1ncn2[C@@H]1O[C@H](COP(=O)(O)OP(=O)(O)OP(=O)(O)OP(=O)(O)OP(=O)(O)OC[C@H]2O[C@@H](n3cnc4c(N)ncnc43)[C@H](O)[C@@H]2O)[C@@H](O)[C@H]1O [AP5A, P^1,P^5-di(adenosine-5′)-pentaphosphate]",–,50.5±0.2,–,"Δ Tm ([4]; shift versus apo TbrAK (43.1°C), AP5A, adenosine, ATP at 500 µM, compound 1 at 50 µM): 7.4 °C"
"CCc1ccc(-c2cc(C3CCOCC3)[nH]n2)cc1 [compound 3, 3-(4-ethylphenyl)-5-(tetrahydropyran-4-yl)-1H-pyrazole]",2.5 fold,–,168,–
Nc1ncnc2c1ncn2[C@@H]1O[C@H](CO)[C@@H](O)[C@H]1O [adenosine],–,50.7±0.2,–,"Kd [6]: 1.3 ± 0.3 µM; n (molar ratio, single site) ([6]; in presence of compound 1 (150 µM)): 0.9±0.1; ΔHbind, single binding site ([6]; in presence of compound 1 (150 µM), single-site binding model): -15.5 ± 0.2 kcal/mol; Kd ([6]; read-out: KD, low affinity binding site, two-sites non-interacting binding model, mean of two experiments): 27.6 ± 1.1 µM; n1 (molar ratio, high affinity site) ([6]; two-sites model): 0.9±0.1; n2 (molar ratio, low affinity site) ([6]; two-sites model): 0.8±0.1"
"c1ccc(Oc2ccc(-c3cc(C4CCOCC4)[nH]n3)cc2)cc1 [compound 2, 3-(4-phenoxyphenyl)-5-(tetrahydropyran-4-yl)-1H-pyrazole]",2.0 fold,–,25.4,–
"Nc1ncnc2c1ncn2[C@@H]1O[C@H](COP(=O)(O)OP(=O)(O)OP(=O)(O)O)[C@@H](O)[C@H]1O [ATP, adenosine triphosphate]",–,42.8±0.1,–,–
"Clc1ccc(-c2cc(N3CCOCC3)[nH]n2)cc1 [compound 4, 4-[5-(4-chlorophenyl)-2H-pyrazol-3-yl]morpholine]",2.0 fold,–,135,–
"c1ccc(Oc2ccc(-c3cc(CN4CCOCC4)[nH]n3)cc2)cc1 [compound 5, 4-[5-(4-phenoxyphenyl)-2H-pyrazol-3-ylmethyl]morpholine]",1.5 fold,–,195,–

# Source: publication PMC3101181, “Crystal Structures of T. b. rhodesiense Adenosine Kinase Complexed with Inhibitor and Activator: Implications for Catalysis and Hyperactivation” (PLoS Neglected Tropical Diseases, 2011)
